Assay results: patent US4882349A, “Pyrrolacetic amides having antiinflammatory activity” (priority 1982, dated 1989)

Key:
[1] = test system: carrageenin-induced oedema; assay: carrageenin-induced oedema test (anti-inflammatory activity); assay type: in vivo, albino male Wistar rats
[2] = test system: phenyl-p-quinone-induced writhing (abdominal contractions); assay: phenylquinone-induced writhing test (analgesic activity), compound given 30 min before phenyl-p-quinone; assay type: in vivo, male Wistar rats
Method in brief: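 Male Wistar rats (110±5 g), fasted 14 h, received test compounds orally or parenterally in 0.5% CMC/saline vehicle 30 min before 2 ml of 0.36% phenyl-p-quinone in 5% ethanol.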

[3] = test system: mucus secreted by the respiratory airway; assay: antisecretory activity, respiratory mucus secretion; assay type: in vivo, albino male New Zealand rabbits; conditions: vs control group
Method in brief: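 Male New Zealand rabbits, groups of four, urethane-anaesthetised (1.1 g/kg i.p.) with tracheal Y cannula breathing 100%-humidity air at 39° C. Mucus collected and measured 3 and 6 h post-dose; change expressed as percent difference from vehicle controls.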

[4] = test system: cough provoked by mechanical stimulation of the tracheal bifurcation mucosa; assay: antitussive activity, mechanically provoked coughing; assay type: in vivo, albino Guinea-pigs; conditions: 1 h after administration
Method in brief: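 Albino guinea-pigs (300 g) with a tracheal Y cannula; coughing provoked by mechanically stimulating the tracheal bifurcation mucosa with a boar's hair.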

[5] = 50 mg/Kg, Table IV (route not given), 2 h
[6] = 50 mg/Kg, Table IV (route not given), 4 h
[7] = 50 mg/Kg, Table IV (route not given), 6 h
[8] = 50 mg/Kg, Table IV (route not given), 24 h
[9] = 50 mg/Kg, Table IV (route not given), 48 h
[10] = 50 mg/Kg, Table IV (route not given), 72 h
[11] = 100 mg/Kg, Table IV (route not given), 2 h
[12] = 100 mg/Kg, Table IV (route not given), 4 h
[13] = 100 mg/Kg, Table IV (route not given), 6 h
[14] = 100 mg/Kg, Table IV (route not given), 24 h
[15] = 100 mg/Kg, Table IV (route not given), 48 h
[16] = 100 mg/Kg, Table IV (route not given), 72 h

Cc1ccc(C(=O)c2ccc(CC(=O)N3CCN(C)CC3)n2C)cc1 [Compound 3-b, 1-methyl-5-p-toluoylpyrrole-2-N-[(4-methyl)-1-piperazinyl] acetamide]
oedema % inhibition ([1]; 25 mg/Kg per os, 2 h): 28.1% | oedema % inhibition ([1]; 25 mg/Kg per os, 4 h): 33.4% | oedema % inhibition ([1]; 25 mg/Kg per os, 6 h): 30.0% | oedema % inhibition ([1]; 25 mg/Kg per os, 24 h): 10.2% | oedema % inhibition ([1]; 25 mg/Kg per os, 48 h): 0.0% | oedema % inhibition ([1]; 25 mg/Kg per os, 72 h): 0.0% | oedema % inhibition ([1]; 25 mg/Kg, Table IV (route not given), 2 h): 33.2% | oedema % inhibition ([1]; 25 mg/Kg, Table IV (route not given), 4 h): 36.0% | oedema % inhibition ([1]; 25 mg/Kg, Table IV (route not given), 6 h): 30.0% | oedema % inhibition ([1]; 25 mg/Kg, Table IV (route not given), 24 h): 10.0% | oedema % inhibition ([1]; 25 mg/Kg, Table IV (route not given), 48 h): 0.0% | oedema % inhibition ([1]; 25 mg/Kg, Table IV (route not given), 72 h): 0.0% | oedema % inhibition ([1]; 50 mg/Kg per os, 2 h): 49.1% | oedema % inhibition ([1]; 50 mg/Kg per os, 4 h): 48.0% | oedema % inhibition ([1]; 50 mg/Kg per os, 6 h): 49.7% | oedema % inhibition ([1]; 50 mg/Kg per os, 24 h): 15.2% | oedema % inhibition ([1]; 50 mg/Kg per os, 48 h): 0.0% | oedema % inhibition ([1]; 50 mg/Kg per os, 72 h): 0.0% | oedema % inhibition [1, 5]: 52.3% | oedema % inhibition [1, 6]: 55.6% | oedema % inhibition [1, 7]: 58.9% | oedema % inhibition [1, 8]: 11.2% | oedema % inhibition [1, 9]: 0.0% | oedema % inhibition [1, 10]: 0.0% | oedema % inhibition ([1]; 100 mg/Kg per os, 2 h): 69.7% | oedema % inhibition ([1]; 100 mg/Kg per os, 4 h): 68.0% | oedema % inhibition ([1]; 100 mg/Kg per os, 6 h): 69.0% | oedema % inhibition ([1]; 100 mg/Kg per os, 24 h): 35.0% | oedema % inhibition ([1]; 100 mg/Kg per os, 48 h): 8.9% | oedema % inhibition ([1]; 100 mg/Kg per os, 72 h): 0.0% | oedema % inhibition [1, 11]: 73.4% | oedema % inhibition [1, 12]: 77.1% | oedema % inhibition [1, 13]: 72.9% | oedema % inhibition [1, 14]: 25.6% | oedema % inhibition [1, 15]: 1.4% | oedema % inhibition [1, 16]: 0.0% | % Protection ([2]; 5 mg/Kg i.p.): 28.0% | % Protection ([2]; 5 mg/Kg per os): 20.0% | % Protection ([2]; 10 mg/Kg i.p.): 50.0% | % Protection ([2]; 10 mg/Kg per os): 52.0% | % Protection ([2]; 20 mg/Kg i.p.): 80.3% | % Protection ([2]; 20 mg/Kg per os): 78.0% | % difference in mucus secretion ([3]; 50 mg/Kg i.p., 3 h): -12% | % difference in mucus secretion ([3]; 50 mg/Kg i.p., 6 h): -10% | % difference in mucus secretion ([3]; 50 mg/Kg per os, 3 h): -9% | % difference in mucus secretion ([3]; 50 mg/Kg per os, 6 h): -5% | % difference in mucus secretion ([3]; 75 mg/Kg i.p., 3 h): -25% | % difference in mucus secretion ([3]; 75 mg/Kg i.p., 6 h): -22% | % difference in mucus secretion ([3]; 75 mg/Kg per os, 3 h): -18% | % difference in mucus secretion ([3]; 75 mg/Kg per os, 6 h): -10% | % difference in mucus secretion ([3]; 100 mg/Kg i.p., 3 h): -40% | % difference in mucus secretion ([3]; 100 mg/Kg i.p., 6 h): -36% | % difference in mucus secretion ([3]; 100 mg/Kg per os, 3 h): -36% | % difference in mucus secretion ([3]; 100 mg/Kg per os, 6 h): -30% | % inhibition, cough amplitude ([4]; 50 mg/Kg i.p.): 20% | % inhibition, cough frequency ([4]; 50 mg/Kg i.p.): 28% | % inhibition, cough amplitude ([4]; 50 mg/Kg per os): 18% | % inhibition, cough frequency ([4]; 50 mg/Kg per os): 29% | % inhibition, cough amplitude ([4]; 75 mg/Kg i.p.): 30% | % inhibition, cough frequency ([4]; 75 mg/Kg i.p.): 20% | % inhibition, cough amplitude ([4]; 75 mg/Kg per os): 30% | % inhibition, cough frequency ([4]; 75 mg/Kg per os): 18% | % inhibition, cough amplitude ([4]; 100 mg/Kg i.p.): 52% | % inhibition, cough frequency ([4]; 100 mg/Kg i.p.): 40% | % inhibition, cough amplitude ([4]; 100 mg/Kg per os): 45% | % inhibition, cough frequency ([4]; 100 mg/Kg per os): 39%

Cc1ccc(C(=O)c2ccc(CC(=O)O)n2C)cc1 [Tolmetin Na.2H2 O, 1-methyl-5-p-toluoylpyrrole-2-acetic acid, reference compound]
oedema % inhibition ([1]; 10 mg/Kg per os, 2 h): 44.8% | oedema % inhibition ([1]; 10 mg/Kg per os, 4 h): 29.2% | oedema % inhibition ([1]; 10 mg/Kg per os, 6 h): 10.2% | oedema % inhibition ([1]; 10 mg/Kg per os, 24 h): 0.0% | oedema % inhibition ([1]; 10 mg/Kg per os, 48 h): 0.0% | oedema % inhibition ([1]; 10 mg/Kg per os, 72 h): 0.0% | oedema % inhibition ([1]; 10 mg/Kg, Table IV (route not given), 2 h): 46.0% | oedema % inhibition ([1]; 10 mg/Kg, Table IV (route not given), 4 h): 39.1% | oedema % inhibition ([1]; 10 mg/Kg, Table IV (route not given), 6 h): 20.0% | oedema % inhibition ([1]; 10 mg/Kg, Table IV (route not given), 24 h): 0.0% | oedema % inhibition ([1]; 10 mg/Kg, Table IV (route not given), 48 h): 0.0% | oedema % inhibition ([1]; 10 mg/Kg, Table IV (route not given), 72 h): 0.0% | oedema % inhibition ([1]; 50 mg/Kg per os, 2 h): 48.0% | oedema % inhibition ([1]; 50 mg/Kg per os, 4 h): 55.3% | oedema % inhibition ([1]; 50 mg/Kg per os, 6 h): 55.2% | oedema % inhibition ([1]; 50 mg/Kg per os, 24 h): 0.0% | oedema % inhibition ([1]; 50 mg/Kg per os, 48 h): 0.0% | oedema % inhibition ([1]; 50 mg/Kg per os, 72 h): 0.0% | oedema % inhibition [1, 5]: 53.8% | oedema % inhibition [1, 6]: 60.0% | oedema % inhibition [1, 7]: 58.4% | oedema % inhibition [1, 8]: 0.0% | oedema % inhibition [1, 9]: 0.0% | oedema % inhibition [1, 10]: 0.0% | oedema % inhibition ([1]; 100 mg/Kg per os, 2 h): 50.8% | oedema % inhibition ([1]; 100 mg/Kg per os, 4 h): 57.3% | oedema % inhibition ([1]; 100 mg/Kg per os, 6 h): 54.8% | oedema % inhibition ([1]; 100 mg/Kg per os, 24 h): 9.7% | oedema % inhibition ([1]; 100 mg/Kg per os, 48 h): 7.8% | oedema % inhibition ([1]; 100 mg/Kg per os, 72 h): 0.0% | oedema % inhibition [1, 11]: 57.0% | oedema % inhibition [1, 12]: 66.0% | oedema % inhibition [1, 13]: 67.1% | oedema % inhibition [1, 14]: 8.7% | oedema % inhibition [1, 15]: 2.0% | oedema % inhibition [1, 16]: 0.0% | % Protection ([2]; 10 mg/Kg per os): 40.0% | % difference in mucus secretion ([3]; 50 mg/Kg i.p., 3 h): +3% | % difference in mucus secretion ([3]; 50 mg/Kg i.p., 6 h): +7% | % difference in mucus secretion ([3]; 50 mg/Kg per os, 3 h): +5% | % difference in mucus secretion ([3]; 50 mg/Kg per os, 6 h): +10% | % difference in mucus secretion ([3]; 75 mg/Kg i.p., 3 h): +8% | % difference in mucus secretion ([3]; 75 mg/Kg i.p., 6 h): +10% | % difference in mucus secretion ([3]; 75 mg/Kg per os, 3 h): 0.0% | % difference in mucus secretion ([3]; 75 mg/Kg per os, 6 h): +2% | % difference in mucus secretion ([3]; 100 mg/Kg i.p., 3 h): +7% | % difference in mucus secretion ([3]; 100 mg/Kg i.p., 6 h): 0.0% | % difference in mucus secretion ([3]; 100 mg/Kg per os, 3 h): +5% | % difference in mucus secretion ([3]; 100 mg/Kg per os, 6 h): 0.0% | % inhibition, cough amplitude ([4]; 50 mg/Kg i.p.): 0% | % inhibition, cough frequency ([4]; 50 mg/Kg i.p.): 0% | % inhibition, cough amplitude ([4]; 50 mg/Kg per os): 0% | % inhibition, cough frequency ([4]; 50 mg/Kg per os): 0% | % inhibition, cough amplitude ([4]; 75 mg/Kg i.p.): 0% | % inhibition, cough frequency ([4]; 75 mg/Kg i.p.): 10% | % inhibition, cough amplitude ([4]; 75 mg/Kg per os): 7% | % inhibition, cough frequency ([4]; 75 mg/Kg per os): 0% | % inhibition, cough amplitude ([4]; 100 mg/Kg i.p.): 7% | % inhibition, cough frequency ([4]; 100 mg/Kg i.p.): 10% | % inhibition, cough amplitude ([4]; 100 mg/Kg per os): 5% | % inhibition, cough frequency ([4]; 100 mg/Kg per os): 5%
